Experimental data reported in ChEMBL document CHEMBL5257079, “Discovery of FXR/PPARγ dual partial agonist” (Bioorg Med Chem, 2023).
Calls of active or inactive are those of the source. No cut-off for these calls is given here.

Tests used:
[1] = target: T1, Bile acid receptor (Homo sapiens) (UniProt Q96RI1); assay: Partial agonist activity at FXR in human Huh-7 cells assessed as reduction in CDCA-induced FAS gene expression at 10 uM by RT-PCR analysis; type: cell-based; settings: filed as partial agonist
T1 sequence (whole entry): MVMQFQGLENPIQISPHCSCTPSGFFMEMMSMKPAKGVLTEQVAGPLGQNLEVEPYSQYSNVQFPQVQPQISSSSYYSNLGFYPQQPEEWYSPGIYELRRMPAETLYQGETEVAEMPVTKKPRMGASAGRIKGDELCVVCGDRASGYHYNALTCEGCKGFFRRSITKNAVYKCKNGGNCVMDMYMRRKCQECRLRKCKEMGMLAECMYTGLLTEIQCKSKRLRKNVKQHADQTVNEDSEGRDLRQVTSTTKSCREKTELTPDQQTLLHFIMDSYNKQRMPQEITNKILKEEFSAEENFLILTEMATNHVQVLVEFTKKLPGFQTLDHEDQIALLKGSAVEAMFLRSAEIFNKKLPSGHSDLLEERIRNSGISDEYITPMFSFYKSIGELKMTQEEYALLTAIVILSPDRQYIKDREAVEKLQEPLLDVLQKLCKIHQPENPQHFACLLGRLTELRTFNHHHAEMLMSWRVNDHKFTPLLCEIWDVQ

[2] = target: T2, G-protein coupled bile acid receptor 1 (Homo sapiens) (UniProt Q8TDU6); assay: Activation of TGR5 (unknown origin) at 10 uM
T2 sequence (whole entry): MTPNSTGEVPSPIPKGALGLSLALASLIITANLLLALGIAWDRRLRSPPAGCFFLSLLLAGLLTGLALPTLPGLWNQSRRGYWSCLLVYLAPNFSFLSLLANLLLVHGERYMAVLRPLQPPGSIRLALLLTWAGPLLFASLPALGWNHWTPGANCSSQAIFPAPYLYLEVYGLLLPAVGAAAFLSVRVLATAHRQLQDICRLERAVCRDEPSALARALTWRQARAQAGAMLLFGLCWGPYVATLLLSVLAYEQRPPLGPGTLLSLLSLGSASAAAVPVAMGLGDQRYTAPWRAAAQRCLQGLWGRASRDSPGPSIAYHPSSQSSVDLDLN

Bile acid receptor [3] = target: T3, Bile acid receptor (Homo sapiens, UniProt Q96RI1); assay: Partial agonist activity at human FXR expressed in Huh-7 cells in presence of CDCA by luciferase reporter gene assay; type: cell-based
T3 sequence (Q96RI1 whole entry): T1 sequence (whole entry)

[4] = target: T4, Oxysterols receptor LXR-alpha (Homo sapiens) (UniProt Q13133); assay: Activation of LXR alpha (unknown origin) at 10 uM
T4 sequence (whole entry): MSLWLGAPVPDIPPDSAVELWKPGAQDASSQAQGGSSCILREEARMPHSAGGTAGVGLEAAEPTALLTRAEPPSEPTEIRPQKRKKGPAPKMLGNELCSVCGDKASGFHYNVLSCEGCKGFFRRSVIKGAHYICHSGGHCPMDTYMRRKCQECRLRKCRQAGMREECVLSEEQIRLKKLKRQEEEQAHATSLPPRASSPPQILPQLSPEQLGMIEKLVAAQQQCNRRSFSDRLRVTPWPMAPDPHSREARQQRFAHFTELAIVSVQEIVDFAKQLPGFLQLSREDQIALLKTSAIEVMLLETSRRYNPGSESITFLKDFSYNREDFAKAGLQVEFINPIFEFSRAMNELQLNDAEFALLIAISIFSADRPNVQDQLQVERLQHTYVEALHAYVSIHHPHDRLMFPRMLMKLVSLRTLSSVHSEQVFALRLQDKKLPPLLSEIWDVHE

[5] = target: T1, Bile acid receptor (Homo sapiens); assay: Partial agonist activity at FXR in human Huh-7 cells assessed as reduction in CDCA-induced SHP gene expression at 10 uM by RT-PCR analysis; type: cell-based; settings: filed as partial agonist
[6] = target: T1, Bile acid receptor (Homo sapiens); assay: Partial agonist activity at FXR in human Huh-7 cells assessed as reduction in CDCA-induced SREBP gene expression at 10 uM by RT-PCR analysis; type: cell-based; settings: filed as partial agonist
[7] = target: T1, Bile acid receptor (Homo sapiens); assay: Activation of FXR (unknown origin) at 10 uM; settings: filed as activator
[8] = Metabolic stability in mouse liver microsomes assessed as half life; type: ADME, Microsome
Bile acid receptor [9] = target: T3, Bile acid receptor; assay: Antagonist activity at FXR-LBD-GST (unknown origin) in presence of GW4064
[10] = target: T5, Oxysterols receptor LXR-beta (Homo sapiens) (UniProt P55055); assay: Activation of LXR beta (unknown origin) at 10 uM
T5 sequence (whole entry): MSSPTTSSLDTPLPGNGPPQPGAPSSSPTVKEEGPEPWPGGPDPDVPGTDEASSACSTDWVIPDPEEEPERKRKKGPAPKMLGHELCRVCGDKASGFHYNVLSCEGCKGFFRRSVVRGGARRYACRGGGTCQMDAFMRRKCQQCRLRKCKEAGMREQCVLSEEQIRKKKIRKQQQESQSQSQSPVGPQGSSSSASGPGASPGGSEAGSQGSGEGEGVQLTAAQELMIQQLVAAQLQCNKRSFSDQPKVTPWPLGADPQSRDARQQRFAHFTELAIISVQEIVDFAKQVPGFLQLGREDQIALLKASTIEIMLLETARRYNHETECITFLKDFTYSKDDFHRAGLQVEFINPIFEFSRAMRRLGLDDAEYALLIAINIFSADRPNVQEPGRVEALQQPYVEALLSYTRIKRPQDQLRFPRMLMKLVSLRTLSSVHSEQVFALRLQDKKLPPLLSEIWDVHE

[11] = target: T6, Retinoic acid receptor alpha (Homo sapiens) (UniProt P10276); assay: Activation of RARalpha (unknown origin) at 10 uM
T6 sequence (whole entry): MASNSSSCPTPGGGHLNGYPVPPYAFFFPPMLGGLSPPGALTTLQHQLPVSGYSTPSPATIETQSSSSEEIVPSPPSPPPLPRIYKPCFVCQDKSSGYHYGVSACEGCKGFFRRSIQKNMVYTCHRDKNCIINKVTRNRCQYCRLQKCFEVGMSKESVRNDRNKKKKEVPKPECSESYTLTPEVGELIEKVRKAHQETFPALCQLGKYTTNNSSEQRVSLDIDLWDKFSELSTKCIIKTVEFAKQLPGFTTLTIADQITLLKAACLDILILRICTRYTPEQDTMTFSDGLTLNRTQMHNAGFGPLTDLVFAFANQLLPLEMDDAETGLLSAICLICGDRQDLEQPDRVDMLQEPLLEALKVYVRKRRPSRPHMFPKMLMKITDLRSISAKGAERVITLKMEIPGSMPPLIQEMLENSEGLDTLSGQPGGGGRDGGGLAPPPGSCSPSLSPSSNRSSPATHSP

## CC(C)(C)c1ccc(-n2cnc3c(NC(=O)Cc4ccc(C(=O)O)cc4)cccc32)cc1
[1]
  Activity: Active
[2]
  Activity: inactive
Bile acid receptor [3]
  EC50: 1.9 µM
[4]
  Activity: inactive
[5]
  Activity: Active
[6]
  Activity: Active
[7]
  Activity: Active
[8]
  half-life: 57 min
Bile acid receptor [9]
  IC50: 20.7 µM
[10]
  Activity: inactive
[11]
  Activity: inactive
